Details: Liquid, Brillouin Light Scattering

CC(C)OC(C)C [diisopropyl ether]
Details | speed of sound [m/s]
302.38 K, 10000 kPa | 1087.1
302.39 K, 4000 kPa | 1011.9
302.48 K, 5500 kPa | 1029.7
302.8 K, 8500 kPa | 1052.4
302.91 K, 2500 kPa | 1002.7
302.96 K, 1000 kPa | 986.08
303.07 K, 7000 kPa | 1037.8
307.45 K, 4000 kPa | 987.23
307.61 K, 10000 kPa | 1066.1
307.86 K, 5500 kPa | 1009.4
307.87 K, 8500 kPa | 1038.9
308 K, 1000 kPa | 965.01
308.01 K, 7000 kPa | 1020.5
308.28 K, 2500 kPa | 974.68
312.8 K, 10000 kPa | 1051
312.81 K, 8500 kPa | 1010.4
312.88 K, 7000 kPa | 995.2
312.91 K, 2500 kPa | 961.97
312.92 K, 5500 kPa | 979.14
313.05 K, 1000 kPa | 943.07
313.14 K, 4000 kPa | 969.4
317.72 K, 10000 kPa | 1030.2
318.01 K, 5500 kPa | 968.08
318.11 K, 1000 kPa | 924.03
318.13 K, 8500 kPa | 996.14
318.14 K, 2500 kPa | 928.92
318.38 K, 7000 kPa | 974.91
318.49 K, 4000 kPa | 951.1
322.82 K, 10000 kPa | 1007.1
323.15 K, 7000 kPa | 960.56
323.3 K, 8500 kPa | 972.88
323.31 K, 2500 kPa | 912.04
323.5 K, 5500 kPa | 943.6
323.62 K, 1000 kPa | 901.5
323.71 K, 4000 kPa | 924.8
327.56 K, 10000 kPa | 994.72
327.75 K, 8500 kPa | 964.89
327.97 K, 1000 kPa | 881.1
328.08 K, 2500 kPa | 887.66
328.1 K, 4000 kPa | 901.06
328.13 K, 7000 kPa | 936.62
328.17 K, 5500 kPa | 923.15
332.93 K, 10000 kPa | 963.31
332.94 K, 2500 kPa | 869.98
333.01 K, 7000 kPa | 920.95
333.08 K, 1000 kPa | 855
333.25 K, 8500 kPa | 943.92
333.31 K, 4000 kPa | 888.08
333.57 K, 5500 kPa | 897.12
337.63 K, 5500 kPa | 882.64
337.69 K, 1000 kPa | 846.25
337.75 K, 2500 kPa | 857.76
337.85 K, 10000 kPa | 946.87
337.89 K, 8500 kPa | 917.48
337.93 K, 4000 kPa | 867.64
338.11 K, 7000 kPa | 896.43
343.33 K, 1000 kPa | 819.28
343.57 K, 8500 kPa | 904.65
343.67 K, 4000 kPa | 845.53
343.79 K, 7000 kPa | 878.38
343.82 K, 2500 kPa | 827.84
343.88 K, 10000 kPa | 923.89
343.97 K, 5500 kPa | 864.56
347.31 K, 10000 kPa | 915.04
347.41 K, 2500 kPa | 807.03
347.59 K, 1000 kPa | 802.59
347.69 K, 4000 kPa | 832.86
347.76 K, 8500 kPa | 887.44
347.81 K, 5500 kPa | 843.4
347.81 K, 7000 kPa | 867.06
352.94 K, 4000 kPa | 804.7
353.38 K, 8500 kPa | 862.02
353.45 K, 1000 kPa | 775.82
353.59 K, 2500 kPa | 792.6
353.6 K, 5500 kPa | 819.82
353.71 K, 7000 kPa | 845.61
353.81 K, 10000 kPa | 893.76
358.06 K, 10000 kPa | 870.54
358.52 K, 8500 kPa | 846.91
358.55 K, 5500 kPa | 807.15
358.76 K, 1000 kPa | 755.17
358.93 K, 2500 kPa | 760.2
358.96 K, 4000 kPa | 782.98
359.03 K, 7000 kPa | 821.85
362.67 K, 1000 kPa | 737.96
362.78 K, 5500 kPa | 786.13
362.9 K, 10000 kPa | 855.96
362.95 K, 8500 kPa | 828.91
363.08 K, 7000 kPa | 809.07
363.21 K, 2500 kPa | 747.41
363.41 K, 4000 kPa | 767.15
367.56 K, 7000 kPa | 793.16
367.57 K, 5500 kPa | 769.09
367.78 K, 4000 kPa | 751.56
367.82 K, 8500 kPa | 809.14
367.96 K, 10000 kPa | 835.29
368.03 K, 1000 kPa | 715.17
368.26 K, 2500 kPa | 726.3
372.68 K, 10000 kPa | 816.27
372.8 K, 7000 kPa | 771.64
373.15 K, 5500 kPa | 753.88
373.21 K, 8500 kPa | 788.43
373.29 K, 2500 kPa | 712.12
373.37 K, 4000 kPa | 726.56
373.57 K, 1000 kPa | 697.04
377.41 K, 1000 kPa | 679.66
377.54 K, 7000 kPa | 749.64
377.85 K, 4000 kPa | 712.4
377.85 K, 5500 kPa | 728.98
377.97 K, 8500 kPa | 770.84
378.05 K, 2500 kPa | 690.57
378.3 K, 10000 kPa | 803.55
382.72 K, 1000 kPa | 654.9
382.77 K, 7000 kPa | 734.01
382.78 K, 10000 kPa | 787
382.83 K, 5500 kPa | 710.48
382.88 K, 8500 kPa | 754.35
383.06 K, 2500 kPa | 665.89
383.26 K, 4000 kPa | 691.26
387.78 K, 4000 kPa | 674.22
388 K, 7000 kPa | 713.08
388.09 K, 5500 kPa | 694.59
388.3 K, 8500 kPa | 735.65
388.31 K, 2500 kPa | 653.57
388.68 K, 1000 kPa | 634.3
388.86 K, 10000 kPa | 760.66
392.26 K, 2500 kPa | 635.1
392.28 K, 5500 kPa | 675.48
392.33 K, 7000 kPa | 701.13
392.5 K, 4000 kPa | 658.79
392.65 K, 10000 kPa | 747.04
392.79 K, 8500 kPa | 722.68
393.19 K, 1000 kPa | 615.78
397.81 K, 4000 kPa | 632.66
397.95 K, 2500 kPa | 613.31
398.22 K, 5500 kPa | 653.67
398.25 K, 1000 kPa | 589.15
398.32 K, 8500 kPa | 702.44
398.37 K, 7000 kPa | 674.76
398.9 K, 10000 kPa | 728.83
402.67 K, 7000 kPa | 662.53
402.77 K, 5500 kPa | 638.47
402.88 K, 2500 kPa | 590.27
403.23 K, 8500 kPa | 683.98
403.4 K, 4000 kPa | 612.03
403.45 K, 1000 kPa | 570.56
403.45 K, 10000 kPa | 709.11
407.64 K, 5500 kPa | 623.08
407.75 K, 10000 kPa | 693.65
408.1 K, 7000 kPa | 642.44
408.23 K, 8500 kPa | 667.12
408.31 K, 4000 kPa | 592.12
408.37 K, 2500 kPa | 571.15
408.65 K, 1000 kPa | 544.68
412.43 K, 2500 kPa | 550.12
412.43 K, 5500 kPa | 606.9
412.66 K, 1000 kPa | 530.21
412.7 K, 4000 kPa | 576.58
412.83 K, 10000 kPa | 681.56
412.95 K, 8500 kPa | 646.94
413.28 K, 7000 kPa | 622.07
418.22 K, 2500 kPa | 532.67
418.42 K, 8500 kPa | 627.35
418.54 K, 5500 kPa | 583.39
418.59 K, 10000 kPa | 659.95
418.87 K, 7000 kPa | 603.43
418.91 K, 4000 kPa | 554.62
419.01 K, 1000 kPa | 502.48
423.21 K, 1000 kPa | 482.17
423.5 K, 4000 kPa | 536.96
423.62 K, 8500 kPa | 613.79
423.75 K, 7000 kPa | 590.42
423.79 K, 5500 kPa | 567.31
423.9 K, 10000 kPa | 640.34
424.09 K, 2500 kPa | 502.49
427.41 K, 7000 kPa | 578.56
427.66 K, 1000 kPa | 460.04
427.92 K, 8500 kPa | 597.25
428.03 K, 4000 kPa | 520.63
428.26 K, 2500 kPa | 490.5
428.45 K, 5500 kPa | 546.98
428.53 K, 10000 kPa | 625.16
432.35 K, 10000 kPa | 618.58
432.63 K, 5500 kPa | 529.89
432.77 K, 8500 kPa | 581.79
432.83 K, 7000 kPa | 558.11

Details | speed of sound [m/s]
303.08 K | 986.38
318.27 K | 915.66
333.62 K | 852.5
347.96 K | 790.74
362.87 K | 731.21
378.14 K | 662.26
393.15 K | 593.47
402.97 K | 552.35
412.75 K | 514.15
422.75 K | 469.11
432.74 K | 426.77

From the NIST ThermoML archive (doi:10.1016/j.jct.2016.09.005)
